Assay results reported in publication PMC7857870, “Design and Synthesis of 4-O-Podophyllotoxin Sulfamate Derivatives as Potential Cytotoxic Agents” (Evidence-based Complementary and Alternative Medicine : eCAM, 2021).
Entries after “also recorded” stand apart in the source; their conditions may differ.

Tests used:
[1] = test system: human colon adenocarcinoma (HT29); assay: MTT cytotoxicity assay, 72 h; format: cell-based; conditions: HT-29, MTT 72 h, read-out: IC50 ± SD, HT29
Description: (§1) Three cancer cell lines, human breast adenocarcinoma (MCF7), human ovary adenocarcinoma (A2780), and human colon adenocarcinoma (HT29), in addition the normal human fetal lung fibroblast (MRC5), were used. All cell lines were obtained from the ATCC. The three cancer cells were subcultured in RPMI-1640 media (10% FBS), while MRC5 was maintained in Eagles minimum essential medium (EMEM, 10% FBS), all at 37°C, 5% CO2, and 100% relative humidity.
(§2) As previously reported, the cytotoxicity of the six compounds, including podophyllotoxin as reference, was evaluated by the MTT assay. The three cell lines and one normal fibroblast cells were separately cultured in 96-well (3 × 10^3/well) and incubated at 37°C overnight. Final compound concentrations are as follows: 0, 0.005, 0.050, 0.500, 5.000, and 25.000 μM (DMSO 0.1%; n = 3). Plates were incubated for 72 h, followed by addition of MTT to each well. Plates were incubated for 3 hr, supernatant was aspirated, and DMSO was added to each well. The absorbance was read on multiplate reader. The optical density of the purple formazan A550 is proportional to the number of viable cells. Compound concentration causing 50% inhibition (IC50) compared to control cell growth (100%) was determined. GraphPad Prism version 5.00 for Windows, GraphPad Software, San Diego California, USA, was used for analysis.

[2] = test system: human ovary adenocarcinoma (A2780); assay: MTT cytotoxicity assay, 72 h; format: cell-based; conditions: MTT 72 h, read-out: IC50 ± SD, A2780
Description: as §1, §2

[3] = test system: human breast adenocarcinoma (MCF7); assay: MTT cytotoxicity assay, 72 h; format: cell-based; conditions: MTT 72 h, read-out: IC50 ± SD, MCF7
Description: as §1, §2

[4] = test system: normal human fetal lung fibroblast (MRC5); assay: MTT cytotoxicity assay, 72 h, normal cells; format: cell-based; conditions: MTT 72 h, normal fibroblasts, read-out: IC50 ± SD, MRC5
Description: as §1, §2

MCF7, A2780, and HT29 = assay: MTT cytotoxicity assay, text summary over the three cancer cell lines and selectivity versus MRC5; format: cell-based, human; conditions: for selectivity against MCF7, A2780 and HT29 compared to MRC5 cells: cancer cells versus normal MRC5 cells; for IC50: Homo sapiens, MTT, range over three cancer cell lines, read-out: activity (IC50) against the three cell lines MCF7, A2780 and HT29
Description: as §1, §2

[5] = Stability observation of the prepared compound; format: physicochemical; conditions: excluded from the biological assay
MCF7 cells = assay: Annexin V FITC/PI apoptosis assay (flow cytometry); format: cell-based, human; conditions: 24 h treatment, 0.5-5.0 µM, dose-dependent
Description: Annexin V FITC/PI assay was used to evaluate possible ability to induce apoptosis. MCF7 cells were cultured in 6 well plates (1 × 10^5 cells/well) overnight at 37°C. Compounds 2, 3, and 7 were used to treat cells (0, 0.5, 1.0, and 5.0 µM). After 24 h, the supernatant of treated cells was collected in tubes and kept in ice, and cells were trypsinized and incubated at 37°C before being added to the tubes. MCF7 cells were centrifuged (2000 rpm) and washed with PBS (x1), and pellets resuspended in the binding buffer (100 μL) and annexin V FITC (10 μL). Tubes were incubated at room temperature in dark for 20 min, before adding binding buffer (400 μL) and 10 μL propidium iodide (PI). Analysis was performed by flow cytometry (BC, FC500, USA). Different cell populations (early apoptotic, late apoptotic, and necrotic cells) were identified by annexin V and PI staining.

Which results are given for `COc1cc([C@@H]2c3cc4c(cc3[C@H](O)[C@H]3COC(=O)[C@H]23)OCO4)cc(OC)c1OC` [Podophyllotoxin]?
IC50 [1]: 2 ± 1 nM; IC50 [2]: 7 ± 1 nM; IC50 [3]: 4 ± 1 nM; IC50 [4]: 43 ± 60 nM

With `COc1cc(C2c3cc4c(cc3C(OS(=O)(=O)Nc3ccccn3)C3COC(=O)C23)OCO4)cc(OC)c1OC` (centres unmarked) [Compound 5, 4-N-(2-Pyridinyl)podophyllotoxin Sulfamate] as the compound, how does the “selectivity against MCF7, A2780 and HT29 compared to MRC5 cells” value (shortened to “selectivity against MCF7, A2780 and HT29”) (MCF7, A2780, and HT29) read?
Its value is “no selectivity”.

And the IC50 [1]?
The IC50 was 1048 ± 5 nM.

And the IC50 [2]?
The IC50 was 132 ± 12 nM.

And the IC50 [3]?
The IC50 was 184 ± 52 nM.

What about the IC50 [4] of the same compound?
Its IC50 is 47 ± 42 nM.

And the melting point?
Its melting point is 230 °C (dec.).

Which results are given for `COc1cc(C2c3cc4c(cc3C(OS(=O)(=O)Nc3ccc(F)cc3)C3COC(=O)C23)OCO4)cc(OC)c1OC` (centres unmarked) [Compound 6, 4-N-(4-Flourophenyl)podophyllotoxin Sulfamate]?
stability of the compound [5]: unstable; melting point: 220 °C

Which results are given for `COc1cc(C2c3cc4c(cc3C(OS(=O)(=O)Nc3ccc5cc6ccccc6cc5c3)C3COC(=O)C23)OCO4)cc(OC)c1OC` (centres unmarked) [Compound 7, 4-N-(2-Anthracenyl)podophyllotoxin Sulfamate]?
IC50 (MCF7, A2780, and HT29): 2120 to 5080 nM; IC50 [1]: 5080 ± 673 nM; IC50 [2]: 3650 ± 1940 nM; IC50 [3]: 2120 ± 989 nM; IC50 [4]: 9080 ± 1010 nM; increase of early apoptotic MCF7 cell population compared to control (MCF7 cells): 1.7–2.2 fold

Which IC50 (MCF7, A2780, and HT29) does the source give for `COc1cc(C2c3cc4c(cc3C(OS(=O)(=O)NCc3ccccn3)C3COC(=O)C23)OCO4)cc(OC)c1OC` (centres unmarked) [Compound 3, 4-N-(2-Pyridinylmethyl)podophyllotoxin Sulfamate] here?
The IC50 was 150 to 220 nM.

And the “selectivity against MCF7, A2780 and HT29” value (MCF7, A2780, and HT29)?
The value was 9.1–13.5 fold.

And the IC50 [1]?
The IC50 was 222 ± 98 nM.

And the IC50 [2]?
Its IC50 is 179 ± 10 nM.

What about the IC50 [3] of the same compound?
The IC50 was 150 ± 60 nM.

And the IC50 [4]?
The IC50 was 2030 ± 250 nM.

And the “increase of early apoptotic MCF7 cell population compared to control” value (MCF7 cells)?
Its value is 1.7–2.2 fold.

For `COc1cc(C2c3cc4c(cc3C(OS(=O)(=O)NCCc3ccccn3)C3COC(=O)C23)OCO4)cc(OC)c1OC` (centres unmarked) [Compound 4, 4-N-(2-Pyridinylethyl)podophyllotoxin Sulfamate], which “selectivity against MCF7, A2780 and HT29” value (MCF7, A2780, and HT29) is on record?
The value was “no selectivity”.

What about the IC50 [1] of the same compound?
Its IC50 is 228 ± 75 nM.

What about the IC50 [2] of the same compound?
The IC50 was 456 ± 180 nM.

What about the IC50 [3] of the same compound?
Its IC50 is 212 ± 10 nM.

What about the IC50 [4] of the same compound?
Its IC50 is 48 ± 3 nM.

And the melting point?
Its melting point is 225 °C.

What does the source list for `COc1cc(C2c3cc4c(cc3C(OS(N)(=O)=O)C3COC(=O)C23)OCO4)cc(OC)c1OC` (centres unmarked) [Compound 2, 4-O-Podophyllotoxin Sulfamate]?
IC50 (MCF7, A2780, and HT29): ≤ 1000 nM; selectivity against MCF7, A2780 and HT29 compared to MRC5 cells (MCF7, A2780, and HT29): less cytotoxic against MRC5 cells; also recorded: moderate selectivity; IC50 [1]: 1340 ± 637 nM; IC50 [2]: 729 ± 363 nM; IC50 [3]: 648 ± 87 nM; IC50 [4]: 7510 ± 1510 nM; increase of early apoptotic MCF7 cell population compared to control (MCF7 cells): 1.7–2.2 fold
